Source: patent US5696108A, “Protein kinase C inhibitors” (Eli Lilly and Company, priority 1996, dated 1997)
pIC50: −log10 of the molar value. Structures can show the parent of a compound that is named as a salt.

Key:
Settings in all cases: Table 1
PKC-β1 = PKC-β1 (Homo sapiens, UniProt P05771); assay: PKC Enzyme Assay, beta-1 isozyme; type: biochemical
Method: (§1) PKC enzymes=alpha, beta I, beta II, gamma, delta, epsilon, eta and zeta.
(§2) Assay components in a total volume of 250 μL are as follows:
(§3) For all the enzymes either histone type HL (Worthington) or myelin basic protein is used as substrate. The assay is started by addition of protein kinase C enzyme incubated at 30° C. for 10 minutes and stopped by adding 0.5 mL of cold trichloroacetic acid (Amresco) followed by 100 μL of 1 mg/mL bovine serum albumin (Sigma, St. Louis, Mo.). The precipitate is collected by vacuum filtration on glass fiber filters employing a TOMTEC™ filtration system and quantified by counting in a beta scintillation counter.

PKC-α = PKC-α (Homo sapiens, UniProt P17252); assay: PKC Enzyme Assay, alpha isozyme; type: biochemical
Method: as §1, §2, §3

[1] = target: T1, cAMP-dependent kinase catalytic subunit (Bos taurus, UniProt P00517); assay: cAMP-Dependent protein Kinase Catalytic Subunit Assay; type: biochemical, bovine
T1 construct: purchased Sigma, St. Louis, Mo; host or cells: bovine heart
Method: cAMP-Dependent protein Kinase Catalytic Subunit Assay (PEA) The Assay components are in a total volume of 250 μL: 20 mM HEPES (Sigma, St. Louis, Mo.) buffer pH 7.5, 200 μg/mL histone type HL (Worthington), 10 mM magnesium chloride (Sigma, St. […] The reaction is initiated by addition of bovine heart cAMP-dependent kinase catalytic subunit (Sigma, St. Louis, Mo.), incubated to 30° C. for 10 minutes and stopped by adding 0.5 mL ice cold Trichloroacetic acid (Amresco) followed by 100 μL of 1 mg/mL bovine serum albumin (Sigma). The precipitate is collected by vacuum filtrated on glass fiber filters employing a TOMTEC™ and quantified by counting in a beta scintillation counter. This assay is done identical to the protein kinase C (PKC) enzyme assay except that no phospholipids or diacylglycerol are employed in the assay and the histone substrate is specific for the cAMP-dependent catalytic subunit enzyme.

casein protein kinase II = target: T2, casein protein kinase II (Rattus norvegicus, UniProt P19139); assay: Casein Protein Kinase II Assay (CK-II); type: biochemical
T2 construct: isolated from rat brain homogenate; from tissue; host or cells: rat brain homogenate
T2 sequence (P19139 whole entry): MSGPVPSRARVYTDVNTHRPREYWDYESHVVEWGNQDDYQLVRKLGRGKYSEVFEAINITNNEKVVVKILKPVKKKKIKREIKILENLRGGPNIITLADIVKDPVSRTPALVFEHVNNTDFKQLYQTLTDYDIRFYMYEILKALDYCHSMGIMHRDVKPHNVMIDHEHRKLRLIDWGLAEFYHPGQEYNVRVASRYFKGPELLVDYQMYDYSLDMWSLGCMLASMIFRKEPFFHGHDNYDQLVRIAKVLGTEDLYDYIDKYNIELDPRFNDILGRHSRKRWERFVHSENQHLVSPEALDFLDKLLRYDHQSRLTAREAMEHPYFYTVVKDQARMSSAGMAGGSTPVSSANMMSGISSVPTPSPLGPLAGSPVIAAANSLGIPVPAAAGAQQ
T2 sequence (P67874 2-215 partner limits assumed): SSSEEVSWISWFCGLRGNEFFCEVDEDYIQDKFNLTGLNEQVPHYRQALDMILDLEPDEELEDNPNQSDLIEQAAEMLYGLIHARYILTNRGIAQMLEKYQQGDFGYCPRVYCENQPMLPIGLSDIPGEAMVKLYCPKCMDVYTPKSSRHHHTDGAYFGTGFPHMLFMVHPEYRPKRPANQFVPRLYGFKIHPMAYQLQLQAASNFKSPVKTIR
Method: Casein Protein Kinase II Assay (CK-II)
The Casein Protein Kinase II Assay is described in Neurochem. […] The assay components are in a total volume of 250 μL: 20 mM Tris-HCl, pH 7.5, 5 mM sodium fluoride, 50 mg/mL Casein (Sigma, St. Louis, Mo.), 10 mM magnesium chloride (Sigma, St. Louis, Mo.), 10 μL DMSO or DMSO/inhibitor and 30 μm (gamma-32P) ATP (DuPont). Initiation of the reaction is performed by addition of casein protein kinase II (isolated from rat brain homogenate), incubated at room temperature for 10 minutes and stopped by the addition of 0.5 mL ice cold Trichloroacetic acid (Amresco) followed by 100 μL of 1 mg/mL bovine serum albumin (Sigma, St. Louis, Mo.). The precipitate is collected by vacuum filtration on glass fiber filters and quantified by counting in a beta scintillation counter.
Assay components in order of addition
10 μL or DMSO or DMSO/inhibitor
25 μL of AT32P in 300 μM magnesium chloride
40 μL of enzyme (undiluted)
Buffer prepared as follows:
(Final volume=3.5 mL: amount of 20 assays)

PKC-β2 = PKC-β2 (Homo sapiens, UniProt P05771); assay: PKC Enzyme Assay, beta-2 isozyme; type: biochemical
Chain of PKC-β2 (P05771 1-673 isoform P05771-2): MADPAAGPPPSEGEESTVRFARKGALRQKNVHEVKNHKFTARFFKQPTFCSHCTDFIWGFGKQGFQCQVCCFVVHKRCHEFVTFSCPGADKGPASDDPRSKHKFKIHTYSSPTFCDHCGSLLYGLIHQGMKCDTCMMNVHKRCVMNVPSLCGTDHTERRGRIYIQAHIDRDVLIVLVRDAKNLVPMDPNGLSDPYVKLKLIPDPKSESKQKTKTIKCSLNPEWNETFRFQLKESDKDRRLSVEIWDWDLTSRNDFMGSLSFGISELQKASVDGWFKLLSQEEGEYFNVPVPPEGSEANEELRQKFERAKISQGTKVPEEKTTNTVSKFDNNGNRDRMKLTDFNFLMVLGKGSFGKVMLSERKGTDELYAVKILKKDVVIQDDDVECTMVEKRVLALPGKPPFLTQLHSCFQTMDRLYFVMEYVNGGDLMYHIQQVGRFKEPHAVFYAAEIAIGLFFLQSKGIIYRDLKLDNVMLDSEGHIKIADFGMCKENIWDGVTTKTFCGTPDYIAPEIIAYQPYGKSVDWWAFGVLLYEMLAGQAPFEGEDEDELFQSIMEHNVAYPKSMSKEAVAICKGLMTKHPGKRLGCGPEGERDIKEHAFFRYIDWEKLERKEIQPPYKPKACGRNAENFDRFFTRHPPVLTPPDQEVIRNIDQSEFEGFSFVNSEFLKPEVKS
Method: as §1, §2, §3

src = target: T3, src (Homo sapiens, UniProt P12931); assay: Protein Tyrosine Kinase Assay (src); type: biochemical
T3 construct: purchased Onogene Science, Inc. PK02 and PK03
T3 sequence (P12931 whole entry, species assumed): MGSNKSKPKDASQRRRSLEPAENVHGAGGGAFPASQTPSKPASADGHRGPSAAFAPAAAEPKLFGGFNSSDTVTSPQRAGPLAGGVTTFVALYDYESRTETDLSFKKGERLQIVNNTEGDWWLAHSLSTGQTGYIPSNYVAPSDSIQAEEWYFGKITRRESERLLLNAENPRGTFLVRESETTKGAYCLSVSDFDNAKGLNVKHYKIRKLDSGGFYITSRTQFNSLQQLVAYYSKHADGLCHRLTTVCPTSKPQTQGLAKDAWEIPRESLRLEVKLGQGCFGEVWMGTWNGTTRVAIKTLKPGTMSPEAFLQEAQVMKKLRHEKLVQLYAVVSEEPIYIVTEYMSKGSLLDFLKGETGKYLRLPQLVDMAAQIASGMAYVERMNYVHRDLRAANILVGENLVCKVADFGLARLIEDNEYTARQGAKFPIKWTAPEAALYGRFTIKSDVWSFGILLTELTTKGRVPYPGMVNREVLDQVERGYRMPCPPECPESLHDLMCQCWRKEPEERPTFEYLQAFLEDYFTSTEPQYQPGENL
Method: Protein Tyrosine Kinase Assay (src)
The Assay components are the following:
4 μL DMSO or DMSO/inhibitor

[2] = target: calcium calmodulin dependent protein kinase; assay: Calcium Calmodulin Dependent Protein Kinase Assay (CAM); type: biochemical, rat
Method: Calcium Calmodulin Dependent Protein Kinase Assay (CAM)
The reaction is initiated by the addition of calcium calmodulin dependent protein kinase (isolated from rat brain homogenate), incubated at room temperature for 10 minutes and stopped by adding 0.5 mL ice cold trichloroacetic acid (Amresco) followed by 100 μL of 1 mg/mL bovine serum albumin (Sigma, St. Louis, Mo.). The precipitate is collected by vacuum filtration on glass fiber filters and quantified by counting in a beta scintillation counter.
25 μL calmodulin (250 μg/mL)
10 μL DMSO or DMSO/inhibitor

Chain of PKC-β1 (P05771 whole entry): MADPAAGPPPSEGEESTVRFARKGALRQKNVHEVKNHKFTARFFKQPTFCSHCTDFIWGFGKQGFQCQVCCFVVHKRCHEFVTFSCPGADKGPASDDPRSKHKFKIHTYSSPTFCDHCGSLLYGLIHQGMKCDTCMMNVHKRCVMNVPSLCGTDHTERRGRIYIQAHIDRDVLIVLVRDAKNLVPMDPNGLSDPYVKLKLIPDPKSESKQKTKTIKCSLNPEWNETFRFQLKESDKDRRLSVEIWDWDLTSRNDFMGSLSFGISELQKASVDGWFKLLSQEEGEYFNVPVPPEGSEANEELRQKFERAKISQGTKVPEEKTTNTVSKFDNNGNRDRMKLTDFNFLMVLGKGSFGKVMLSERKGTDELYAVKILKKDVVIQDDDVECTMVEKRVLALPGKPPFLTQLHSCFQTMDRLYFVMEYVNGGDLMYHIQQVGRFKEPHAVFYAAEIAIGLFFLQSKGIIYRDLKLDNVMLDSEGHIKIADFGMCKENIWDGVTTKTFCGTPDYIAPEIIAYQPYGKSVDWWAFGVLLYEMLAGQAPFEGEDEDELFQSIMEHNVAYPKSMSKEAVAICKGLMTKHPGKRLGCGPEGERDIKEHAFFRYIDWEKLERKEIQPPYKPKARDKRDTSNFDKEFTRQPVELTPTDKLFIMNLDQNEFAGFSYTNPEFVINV

pIC50 (PKC-β1)	pIC50 (PKC-α)	pIC50 [1]	pIC50 (casein protein kinase II)	pIC50 (PKC-β2)	pIC50 (src)	pIC50 [2]	Compound
8.30	6.52	< 4.00	< 4.00	7.68	4.48	6.16	NC[C@H]1CCn2cc(c3ccccc32)C2=C(C(=O)NC2=O)c2cn(c3ccccc23)CCO1 [Example 4r]
7.32	5.89	< 4.00	< 4.00	7.48	4.20	5.60	NC[C@@H]1CCn2cc(c3ccccc32)C2=C(C(=O)NC2=O)c2cn(c3ccccc23)CCO1 [Example 4s]
7.49	6.32	< 4.00	< 4.00	7.52	< 4.00	5.66	CC(=O)NC[C@H]1CCn2cc(c3ccccc32)C2=C(C(=O)NC2=O)c2cn(c3ccccc23)CCO1 [Example 19r]
–	6.05	< 4.00	< 4.00	–	4.13	5.14	O=C1NC(=O)C2=C1c1cn(c3ccccc13)CCO[C@@H](CN1CCCC1)CCn1cc2c2ccccc21 [Example 20r]
–	5.52	< 4.00	< 4.00	–	4.80	5.17	O=C1NC(=O)C2=C1c1cn(c3ccccc13)CCO[C@H](CN1CCCC1)CCn1cc2c2ccccc21 [Example 20s]
6.74	4.17	< 4.00	< 4.00	7.30	< 4.00	–	O=C1NC(=O)C2=C1c1cn(c3ccccc13)CCO[C@@H](CNS(=O)(=O)c1ccccc1)CCn1cc2c2ccccc21 [Example 21r]
8.30	6.35	< 4.00	< 4.00	7.85	4.21	5.15	O=C1NC(=O)C2=C1c1cn(c3ccccc13)CCC[C@@H](CN1CCCC1)CCn1cc2c2ccccc21 [Example 36r, (R)-3,4-[(N,N'-1,1'-(3"-(N-pyrrolidino)methylene)-hexane)-bis-(3,3"-indolyl)]-1H-pyrrole-2,5-dione hydrochloride salt]
–	6.52	< 4.00	< 4.00	–	4.15	5.10	CN(C)C[C@@H]1CCCn2cc(c3ccccc32)C2=C(C(=O)NC2=O)c2cn(c3ccccc23)CC1 [Example 40r, (R)-3,4-[(N,N'-1,1'-(3"-(N,N-dimethylamino)methylene)-hexane)-bis-(3,3'-indolyl)]-1H-pyrrole-2,5-dione hydrochloride salt]

Second part, the molecule before the results:

Compound	pIC50 (PKC-β1)	pIC50 (PKC-α)	pIC50 [1]	pIC50 (casein protein kinase II)	pIC50 (PKC-β2)	pIC50 (src)	pIC50 [2]
O=C1NC(=O)C2=C1c1cn(c3ccccc13)CCCC(COCc1ccccc1)CCn1cc2c2ccccc21 (racemic) [Example 30, (±)-3,4-[(N,N'-1,1'-(3"-(benzyloxymethylene)hexane)-bis-(3,3'-indolyl)]-1H-pyrrole-2,5-dione]	6.00	< 4.00	< 4.00	< 5.00	5.70	< 4.00	< 5.00
O=C1NC(=O)C2=C1c1cn(c3ccccc13)CCCOC(CO)CCn1cc2c2ccccc21 (stereo not shown) [Example 2, 3,4-[(N,N'-1,1')-((3"-propoxy)-3'"(O)-4'"(hydroxy)butane)-bis-(3,3'-indolyl)]-1(H)-pyrrole-2,5-dione]	6.40	5.40	< 4.00	< 4.00	6.70	< 4.00	< 4.00
NCC1CCn2cc(c3ccccc32)C2=C(C(=O)NC2=O)c2cn(c3ccccc23)CCO1 (stereo not shown) [Example 4, 3,4-[(N,N'-1,1'-((2'"-ethoxy)-3'"(O)-4'"-(amino)-butane)-bis-(3,3'-indolyl)]-1(H)-pyrrole-2,5-dione trifluoroacetate salt]	7.70	6.52	–	< 4.00	8.10	4.43	5.52
NCC1CCn2cc(c3ccccc32)C2=C(C(=O)NC2=O)c2cn(c3ccccc23)CCCO1 (stereo not shown) [Example 9]	6.46	5.52	< 4.00	< 4.00	6.80	4.24	4.59
CN(C)CC1CCn2cc(c3ccccc32)C2=C(C(=O)NC2=O)c2cn(c3ccccc23)CCCO1 (stereo not shown) [Example 11]	6.52	5.30	< 4.00	< 4.00	7.00	< 4.00	4.70
O=C1NC(=O)C2=C1c1cn(c3ccccc13)CCCCCCn1cc2c2ccccc21 [Example 28, 3,4-[(N,N'-1,1'-hexane)-bis-(3,3'-indolyl)]-1H-pyrrole-2,5-dione]	7.15	6.00	–	< 4.00	7.10	< 4.00	5.70
O=C1NC(=O)C2=C1c1cn(c3ccccc13)CCCC(CO)CCn1cc2c2ccccc21 (stereo not shown) [Example 31, 3,4-[(N,N'-1,1'-(3"-(hydroxy)methylene)hexane)-bis-(3,3'-indolyl)]-1H-pyrrole-2,5-dione]	7.70	6.52	< 4.00	< 4.00	7.52	< 4.00	6.33
NCC1CCCn2cc(c3ccccc32)C2=C(C(=O)NC2=O)c2cn(c3ccccc23)CC1 (stereo not shown) [Example 32, 3,4-[(N,N'-1,1'-(3"-aminomethylene)-hexane)-bis-(3,3'-indolyl)]-1H-pyrrole-2,5-dione]	8.00	7.00	< 4.00	< 4.00	8.10	4.14	6.05
O=C1NC(=O)C2=C1c1cn(c3ccccc13)CCCC(CNCc1ccccc1)CCn1cc2c2ccccc21 (stereo not shown) [Example 34, 3,4-[(N,N'-1,1'-(3"-(N-benzylamino)methylene)-hexane)-bis-(3,3'-indolyl)]-1H-pyrrole-2,5-dione trifluoroacetate salt]	7.00	6.00	–	< 4.00	7.00	< 4.00	5.40
O=C1NC(=O)C2=C1c1cn(c3ccccc13)CCCC(CN(Cc1ccccc1)Cc1ccccc1)CCn1cc2c2ccccc21 (stereo not shown) [Example 35, 3,4-[(N,N'-1,1 '-(3"-(N,N-dibenzylamino)methylene)-hexane)-bis-(3,3'-indolyl)]-1H-pyrrole-2,5-dione trifluoroacetate salt]	5.52	5.05	–	< 4.00	5.70	< 4.00	4.09
COCC1CCCn2cc(c3ccccc32)C2=C(C(=O)NC2=O)c2cn(c3ccccc23)CC1 (stereo not shown) [Example 37, 3,4-[(N,N'-1,1'-(3"-methoxymethylene)-hexane)-bis-(3,3'-indolyl)]-1H-pyrrole-2,5-dione]	7.30	6.15	< 4.00	< 4.00	7.40	< 4.00	5.30
CN(C)CC1CCCn2cc(c3ccccc32)C2=C(C(=O)NC2=O)c2cn(c3ccccc23)CC1 (stereo not shown) [Example 40]	–	6.22	< 4.00	< 4.00	–	5.36	5.30
O=C1NC(=O)C2=C1c1cn(c3ccccc13)CCCCCn1cc2c2ccccc21 [Example 43]	7.40	6.40	–	< 4.00	7.52	< 4.00	6.22
